Data on 1 molecule can be found in ChEMBL document CHEMBL3525906, “A comprehensive assessment of repaglinide metabolic pathways: impact of choice of in vitro system and relative enzyme contribution to in vitro clearance” (Drug Metab Dispos, 2012).

The structures appear in SMILES notation.

The test system of data set [1] is Liver microsome. Put plainly: Drug metabolism in human liver microsomes assessed as 2-despiperidyl-2-(5-carboxypentylamine) repaglinide formation by LC-MS/MS method. The data set is classed as ADME.
The species entered for data set [2] is Homo sapiens. Briefly: Ratio of AUC in human patient at 0.25 mg to AUC in human patient at 0.25 mg co-treated with telithromycin and montelukast. Type of data set: ADME, organism-based. The note with it: in vivo.
Data set [3] is described as follows: Unbound intrinsic clearance in human hepatic S9 fraction assessed as 2-despiperidyl-2-(5-carboxypentylamine) repaglinide formation measured per mg of protein at 0.5 to 150 uM by LC-MS/MS method. The data set is classed as ADME, tissue-based, Liver. The note with it: s9, 150 µM.
The species entered for data set [4] is Homo sapiens. Put plainly: Ratio of AUC in human patient at 0.25 mg to AUC in human patient at 0.25 mg co-treated with gemfibrozil and itraconazole. Type of data set: ADME, organism-based. The note with it: in vivo.
Data set [5] has as its system Liver microsome. Briefly: Drug metabolism in human liver microsomes assessed as 3'-hydroxy repaglinide formation by LC-MS/MS method. The data set is classed as ADME.
Data set [6] can be described thus: Drug metabolism in human hepatic S9 fraction assessed as glucuronide formation by LC-MS/MS method. Type of data set: ADME, Liver.
The target in data set [7] is T1, Cytochrome P450 2C8 (Homo sapiens, UniProt P10632).
T1 sequence (P10632 whole entry): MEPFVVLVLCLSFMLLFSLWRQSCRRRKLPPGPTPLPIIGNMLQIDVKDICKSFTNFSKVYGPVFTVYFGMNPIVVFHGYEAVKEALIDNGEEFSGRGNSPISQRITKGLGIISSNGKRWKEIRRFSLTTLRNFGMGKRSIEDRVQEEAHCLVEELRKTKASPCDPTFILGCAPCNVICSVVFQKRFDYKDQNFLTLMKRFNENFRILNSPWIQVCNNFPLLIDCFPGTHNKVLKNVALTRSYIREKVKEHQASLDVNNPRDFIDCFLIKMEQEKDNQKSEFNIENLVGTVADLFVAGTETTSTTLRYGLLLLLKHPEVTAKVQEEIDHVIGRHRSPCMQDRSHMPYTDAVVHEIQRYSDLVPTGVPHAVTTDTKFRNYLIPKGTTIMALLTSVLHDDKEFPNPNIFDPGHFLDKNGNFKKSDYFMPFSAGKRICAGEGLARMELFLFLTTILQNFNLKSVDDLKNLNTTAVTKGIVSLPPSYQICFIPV
Put plainly: Unbound intrinsic clearance in human recombinant CYP2C8 expressed in insect cells assessed as enzyme-mediated 3'-hydroxy repaglinide formation per nanomole of protein at 0.5 to 150 uM by LC-MS/MS method. Type of data set: ADME.

A short description of data set [8]: Drug metabolism in human hepatic S9 fraction assessed as 2-despiperidyl-2-amino repaglinide formation by LC-MS/MS method. Type of data set: ADME, Liver.
A short description of data set [9]: Drug metabolism in human hepatocytes assessed as 2-despiperidyl-2-(5-carboxypentylamine) repaglinide formation by LC-MS/MS method. Type of data set: ADME, cell-based, Hepatocyte.
Another data set concerns the target Cytochrome P450 3A5 (Homo sapiens, UniProt P20815). Put plainly: Unbound intrinsic clearance in human recombinant CYP3A5 expressed in insect cells assessed as enzyme-mediated 3'-hydroxy repaglinide formation per nanomole of protein at 0.5 to 150 uM by LC-MS/MS method. Type of data set: ADME.
The species entered for data set [10] is Homo sapiens. Briefly: Ratio of AUC in human patient at 0.25 mg to AUC in human patient at 0.25 mg co-treated with gemfibrozil on various time intervals. Type of data set: ADME, organism-based. Conditions: in vivo.
For data set [11], the species on record is Homo sapiens. Put plainly: Ratio of AUC in human patient at 0.25 mg to AUC in human patient at 0.25 mg co-treated with itraconazole. The note with it: in vivo. Type of data set: ADME, organism-based.
A further data set addresses Cytochrome P450 3A4 (Homo sapiens, UniProt P08684). Briefly: Fraction metabolism via CYP3A4 in human hepatocytes. Type of data set: ADME, cell-based, Hepatocyte.
The target in data set [12] is T1, Cytochrome P450 2C8. Put plainly: Unbound intrinsic clearance in human recombinant CYP2C8 expressed in insect cells assessed as enzyme-mediated 2-despiperidyl-2-amino repaglinide formation per nanomole of protein at 0.5 to 150 uM by LC-MS/MS method. The data set is classed as ADME.

Sequence of Cytochrome P450 3A5 (P20815 whole entry): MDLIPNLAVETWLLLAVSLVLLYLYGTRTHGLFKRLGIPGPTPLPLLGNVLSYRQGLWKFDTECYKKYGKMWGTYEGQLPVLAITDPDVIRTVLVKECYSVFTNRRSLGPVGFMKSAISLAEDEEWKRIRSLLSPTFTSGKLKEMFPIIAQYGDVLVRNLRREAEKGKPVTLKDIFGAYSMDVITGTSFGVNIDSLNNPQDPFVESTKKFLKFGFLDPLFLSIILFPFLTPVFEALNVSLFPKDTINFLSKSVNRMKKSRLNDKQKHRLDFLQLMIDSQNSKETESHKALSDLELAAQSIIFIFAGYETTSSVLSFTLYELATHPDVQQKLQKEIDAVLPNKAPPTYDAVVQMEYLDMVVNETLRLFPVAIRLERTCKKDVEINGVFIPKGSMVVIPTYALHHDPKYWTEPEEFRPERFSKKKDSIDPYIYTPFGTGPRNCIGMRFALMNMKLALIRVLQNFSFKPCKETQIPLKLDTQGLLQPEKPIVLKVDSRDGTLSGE
Sequence of Cytochrome P450 3A4 (P08684 whole entry): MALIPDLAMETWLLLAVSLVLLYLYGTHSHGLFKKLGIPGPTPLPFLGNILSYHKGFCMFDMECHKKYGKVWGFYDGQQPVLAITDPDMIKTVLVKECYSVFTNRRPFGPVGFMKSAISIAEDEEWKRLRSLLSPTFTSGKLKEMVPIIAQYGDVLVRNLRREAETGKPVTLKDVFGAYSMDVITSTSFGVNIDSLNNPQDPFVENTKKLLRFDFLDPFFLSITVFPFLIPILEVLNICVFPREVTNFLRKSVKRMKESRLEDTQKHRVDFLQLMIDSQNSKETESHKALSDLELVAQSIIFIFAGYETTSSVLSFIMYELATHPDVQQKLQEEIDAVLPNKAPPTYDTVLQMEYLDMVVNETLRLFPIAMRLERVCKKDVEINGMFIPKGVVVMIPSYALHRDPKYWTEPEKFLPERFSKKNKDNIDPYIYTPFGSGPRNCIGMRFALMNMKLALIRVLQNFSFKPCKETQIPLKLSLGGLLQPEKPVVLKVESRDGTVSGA

For `CCOc1cc(CC(=O)N[C@@H](CC(C)C)c2ccccc2N2CCCCC2)ccc1C(=O)O` [REPAGLINIDE], the Km in the data set on Liver microsome [1] stood at 24 µM; in the data set with Liver microsome [5], 9 µM; in [6], 47 µM; in [8] it was 58 µM; in [9], 28 µM. For the same molecule, the Ratio in the data set filed under Homo sapiens [2] is 1.9; in the data set listed under Homo sapiens [4], 19; in the data set listed under Homo sapiens [10], 5; in the data set listed under Homo sapiens [11], 1.4. The CL free in data set [3] turned out to be 3.7 µL/min/mg; at Cytochrome P450 2C8 [7], 70 µL/min/nmol; on Cytochrome P450 3A5, 0.19 µL/min/nmol; at Cytochrome P450 2C8 [12], 3.7 µL/min/nmol. For the same molecule, the Fm on Cytochrome P450 3A4 was 0.41.
